Results published in publication PMC9466612, “Enaminone-based carboxylic acids as novel non-classical carbonic anhydrases inhibitors: design, synthesis and in vitro biological assessment” (Journal of Enzyme Inhibition and Medicinal Chemistry, 2022).
Read-outs that look alike come from different tables or passages of the source.

What was measured:
Assay in all cases: stopped-flow CO2 hydrase assay
Assay type in all cases: biochemical
hCA II [1] = target: T1, hCA II (Homo sapiens, UniProt P00918)
T1 construct: gene CA2
Text: stopped-flow CO2 hydrase assay on hCA II

hCA I = target: T2, hCA I (Homo sapiens, UniProt P00915)
T2 construct: gene CA1; cytosolic isoform
Text: stopped-flow CO2 hydrase assay on hCA I

hCA IX [2] = target: T3, hCA IX (Homo sapiens, UniProt Q16790)
T3 construct: gene CA9; trans-membrane isoform
Text: stopped-flow CO2 hydrase assay on hCA IX

hCA XII [3] = target: T4, hCA XII (Homo sapiens, UniProt O43570)
T4 construct: gene CA12; trans-membrane isoform
Text: stopped-flow CO2 hydrase assay on hCA XII

hCA II [4] = target: T1, hCA II; conditions: read-out: KI (μM)^a / hCA I
hCA IX [5] = target: T3, hCA IX; conditions: read-out: KI (μM)^a / hCA I
hCA XII [6] = target: T4, hCA XII; conditions: read-out: KI (μM)^a / hCA I

T4 sequence (O43570 30-289 limits assumed): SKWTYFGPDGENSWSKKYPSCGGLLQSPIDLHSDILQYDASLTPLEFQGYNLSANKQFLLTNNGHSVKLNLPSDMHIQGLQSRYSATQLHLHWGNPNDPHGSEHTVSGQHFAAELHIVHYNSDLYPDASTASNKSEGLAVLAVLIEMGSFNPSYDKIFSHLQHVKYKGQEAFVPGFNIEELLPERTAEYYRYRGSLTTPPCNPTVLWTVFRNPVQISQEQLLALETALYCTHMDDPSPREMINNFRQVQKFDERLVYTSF
T2 sequence (P00915 2-261): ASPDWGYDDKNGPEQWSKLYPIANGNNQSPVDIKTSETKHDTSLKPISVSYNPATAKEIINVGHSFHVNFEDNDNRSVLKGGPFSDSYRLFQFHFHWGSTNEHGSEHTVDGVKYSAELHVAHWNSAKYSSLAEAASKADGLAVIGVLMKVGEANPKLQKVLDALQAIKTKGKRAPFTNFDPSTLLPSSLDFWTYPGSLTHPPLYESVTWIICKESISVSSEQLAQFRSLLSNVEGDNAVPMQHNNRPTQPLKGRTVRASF

Row | Ki (hCA II [1]) | Ki (hCA I) | Ki (hCA IX [2]) | Ki (hCA XII [3]) | Ki (hCA II [4]) | Ki (hCA IX [5]) | Ki (hCA XII [6]) | Structure (SMILES)
1 | 72.8 µM | > 100 µM | 15.9 µM | 9.5 µM | – | – | – | O=C(O)c1cccc(NC=CC(=O)c2ccccc2)c1 [5f]
2 | 80.7 µM | > 100 µM | 24.7 µM | 8.9 µM | – | – | – | O=C(O)c1cccc(NC=CC(=O)c2ccc([N+](=O)[O-])cc2)c1 [5j]
3 | – | > 100 µM | – | – | > 100 µM | > 100 µM | > 100 µM | O=C(O)CNC(=O)c1ccc(N/C=C/C(=O)c2ccc3ccccc3c2)cc1 [12c]
4 | 49 µM | > 100 µM | 19.3 µM | 15.7 µM | – | – | – | O=C(/C=C\Nc1ccccc1C(=O)O)c1ccc2ccccc2c1 [5e]
5 | 92.3 µM | > 100 µM | 11.4 µM | 9.7 µM | – | – | – | O=C(O)c1cccc(NC=CC(=O)c2ccc3ccccc3c2)c1 [5k]
6 | 77.1 µM | > 100 µM | 19.2 µM | 8.6 µM | – | – | – | O=C(O)c1cccc(NC=CC(=O)c2ccc(Cl)cc2)c1 [5h]
7 | 32.7 µM | > 100 µM | 17.7 µM | 12.5 µM | – | – | – | O=C(/C=C\Nc1ccccc1C(=O)O)c1ccc(Cl)cc1 [5c]
8 | 64.3 µM | > 100 µM | 23.7 µM | 7.4 µM | – | – | – | O=C(O)c1cccc(NCCC(=O)c2ccccc2)c1 [7a, 3/4-((3-oxo-3-phenylpropyl)amino)benzoic acids 7a–b]
9 | 12.6 µM | 95.6 µM | 4.1 µM | 0.85 µM | – | – | – | O=C(O)c1ccc(NC=CC(=O)c2ccc([N+](=O)[O-])cc2)cc1 [5p]
10 | 68.2 µM | > 100 µM | 9.6 µM | 10.3 µM | – | – | – | O=C(O)c1cccc(NC=CC(=O)c2ccc(F)cc2)c1 [5g]
11 | 9.8 µM | 75.3 µM | 1.2 µM | 0.97 µM | – | – | – | O=C(O)c1ccc(NC=CC(=O)c2ccccc2)cc1 [5l]
12 | 8.7 µM | 68.8 µM | 0.92 µM | 1.1 µM | – | – | – | O=C(O)c1ccc(NC=CC(=O)c2ccc(F)cc2)cc1 [5m]
13 | 15.3 µM | > 100 µM | 5.6 µM | 6.2 µM | – | – | – | O=C(O)c1ccc(NC=CC(=O)c2ccc(Br)cc2)cc1 [5o]
14 | 24.3 µM | > 100 µM | 13.2 µM | 4.3 µM | – | – | – | O=C(/C=C\Nc1ccccc1C(=O)O)c1ccc(F)cc1 [5b]
15 | 81.4 µM | > 100 µM | 32.5 µM | 13.9 µM | – | – | – | O=C(O)c1cccc(NC=CC(=O)c2ccc(Br)cc2)c1 [5i]
16 | – | > 100 µM | – | – | > 100 µM | > 100 µM | > 100 µM | O=C(O)CNC(=O)c1ccc(N/C=C/C(=O)c2ccc(Br)cc2)cc1 [12b]
17 | – | > 100 µM | – | – | > 100 µM | > 100 µM | > 100 µM | O=C(O)CNC(=O)c1ccc(NC=CC(=O)c2ccccc2)cc1 [12a]
18 | 7.4 µM | 79.4 µM | 0.76 µM | 1.5 µM | – | – | – | O=C(O)c1ccc(NC=CC(=O)c2ccc3ccccc3c2)cc1 [5q]
19 | 26.9 µM | > 100 µM | 14.1 µM | 7.8 µM | – | – | – | O=C(/C=C\Nc1ccccc1C(=O)O)c1ccc([N+](=O)[O-])cc1 [5d]
20 | 39.4 µM | > 100 µM | 10.6 µM | 6.4 µM | – | – | – | O=C(/C=C\Nc1ccccc1C(=O)O)c1ccccc1 [5a]
21 | 13.5 µM | 81.5 µM | 3.4 µM | 4.6 µM | – | – | – | O=C(O)c1ccc(NC=CC(=O)c2ccc(Cl)cc2)cc1 [5n]
22 | 16.7 µM | 63.8 µM | 8.3 µM | 9.1 µM | – | – | – | O=C(O)c1ccc(NCCC(=O)c2ccccc2)cc1 [7b, 3/4-((3-oxo-3-phenylpropyl)amino)benzoic acids 7a–b]
